Reference: ChEMBL document CHEMBL1201862, “PubChem BioAssay data set” (2004)
Activity calls are given as the source filed them.

Experiments:
[1] = Luminescence Cell-Based Dose Response HTS to Identify Inhibitors of 5'UTR Stem-Loop Driven Prion Protein mRNA Translation in H4 Neuroglioblastoma Cells. [Related pubchem assays: 1827 (Project Summary), 1813 (Primary HTS)]; type: functional
[2] = Luminescence-based counterscreen assay for KLF5 inhibitors: dose response cell-based high throughput screening assay to identify cytotoxic compounds using the IEC-6 intestinal epithelial cell line. [Related pubchem assays: 1700 (Primary screen.), 1834 (Confirmation screen.), 1858 (Summary AID.), 1905 (Counterscreen.)]; type: functional
cells [3] = type: functional, cell-based
[4] = alpha-synuclein stem-loop luciferase translation blockers – H4 neuroglioma cells, luminescence, confirmation (AID 1988); type: functional, cell-based
HEK293 [5] = assay: HEK293T cell viability loss, resazurin readout – resazurin fluorescence, cytotoxicity control for NF-kB activator project, SAR follow-up (AID 493251); type: functional, cell-based; details: Homo sapiens
[6] = HEK-293T cell viability reduction – luminescence, B-cell screen hits, cytotoxicity control for BCR NF-kB inhibitor project, dose response (AID 489021); type: functional, cell-based;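 also: HEK-293T cells carrying an NF-kB luciferase reporter; cells exposed to compound for about 14 hours before viability readout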
[7] = luciferase reporter signal reduction – luminescence, H4-C neuroglioblastoma cells, dose response (AID 2458); type: functional, cell-based;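 also: H4 neuroglioblastoma cells stably carrying a luciferase reporter gene fusion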
HEK293 [8] = assay: SAR Analysis of small molecule inhibitors of B-cell specific antigen receptor-induced NF-kB activation in a HEK-293T cell line using a luminescence assay - Set 2. [Related pubchem assays (depositor defined):AID435022, AID435025, AID489021]; type: functional, cell-based; details: Homo sapiens
[9] = alpha-synuclein stem-loop translation blockers – luminescence, H4 neuroglioblastoma cells, dose confirmation, confirmation (AID 2454); type: functional, cell-based;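 also: H4 neuroglioblastoma cells carrying an alpha-synuclein 5'UTR luciferase reporter; potency for inhibition of the luciferase signal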
[10] = luciferase reporter signal suppression in cells – H4 neuroglioma cells, luminescence, dose response (AID 1990); type: functional, cell-based
Jurkat = assay: SAR Analysis of small molecule inhibitors of […] specific antigen receptor-induced NF-kB activation in a Jurkat cell line using a luminescence assay - Set 3. [Related pubchem assays (depositor defined):AID435022, AID435025, AID465]; type: functional, cell-based; details: Homo sapiens
[11] = biological target: T1, Intestinal-type alkaline phosphatase (Homo sapiens, UniProt P09923); assay: inhibition of human intestinal alkaline phosphatase – biochemical, luminescent, uHTS hits, set 2, dose response (AID 488793); type: functional
[12] = biological target: T2, Oxysterols receptor LXR-beta (Homo sapiens, UniProt P55055); type: functional, cell-based;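 also: Cell-based luminescence dose-response assay of agonist activity at LXR, run as a confirmatory counterscreen to a daf-12 agonist screen; HEK293 cells with Gal4-LXR fusion and GAL4-driven luciferase reporter; agonist potency from rising luciferase signal of a Gal4-LXR reporter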
T2 sequence (P55055 whole entry): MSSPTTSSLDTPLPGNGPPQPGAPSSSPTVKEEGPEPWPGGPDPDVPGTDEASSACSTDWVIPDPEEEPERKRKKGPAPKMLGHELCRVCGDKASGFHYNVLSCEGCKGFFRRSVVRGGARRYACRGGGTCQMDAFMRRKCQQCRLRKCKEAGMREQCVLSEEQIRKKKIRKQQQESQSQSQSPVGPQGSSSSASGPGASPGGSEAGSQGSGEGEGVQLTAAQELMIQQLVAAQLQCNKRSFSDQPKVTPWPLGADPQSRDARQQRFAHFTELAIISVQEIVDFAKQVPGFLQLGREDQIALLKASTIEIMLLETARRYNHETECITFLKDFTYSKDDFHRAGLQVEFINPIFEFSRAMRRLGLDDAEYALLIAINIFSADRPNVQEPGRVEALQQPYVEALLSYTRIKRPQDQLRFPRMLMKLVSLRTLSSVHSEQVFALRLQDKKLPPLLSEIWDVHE

[13] = biological target: T3, Alkaline phosphatase, tissue-nonspecific isozyme (Homo sapiens, UniProt P05186); assay: inhibition of tissue-nonspecific alkaline phosphatase – biochemical, dose response (AID 488882); type: functional
T3 sequence (P05186 whole entry): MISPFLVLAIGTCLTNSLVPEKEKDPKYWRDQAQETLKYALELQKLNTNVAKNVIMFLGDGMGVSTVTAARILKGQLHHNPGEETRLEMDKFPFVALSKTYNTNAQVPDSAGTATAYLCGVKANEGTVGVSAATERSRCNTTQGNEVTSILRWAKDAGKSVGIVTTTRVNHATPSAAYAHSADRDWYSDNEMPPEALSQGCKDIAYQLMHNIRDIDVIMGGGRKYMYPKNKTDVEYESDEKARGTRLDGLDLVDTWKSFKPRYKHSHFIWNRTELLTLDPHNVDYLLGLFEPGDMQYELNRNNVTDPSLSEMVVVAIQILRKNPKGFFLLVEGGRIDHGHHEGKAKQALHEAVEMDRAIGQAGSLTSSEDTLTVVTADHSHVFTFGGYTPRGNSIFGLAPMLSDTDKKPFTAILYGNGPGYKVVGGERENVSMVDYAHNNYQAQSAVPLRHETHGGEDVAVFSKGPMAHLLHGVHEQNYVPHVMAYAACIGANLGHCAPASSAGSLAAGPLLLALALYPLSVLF

cells [14] = assay: cells
[15] = biological target: Intestinal-type alkaline phosphatase (Mus musculus, UniProt P24822); assay: PubChem AID 488874; type: functional
Nonstructural protein 1 = Nonstructural protein 1 (Influenza A virus, UniProt Q194T2); type: functional, Influenza A virus (A/California/07/2009(H1N1))
[16] = biological target: T1, Intestinal-type alkaline phosphatase; assay: Dose Response confirmation of uHTS hits from a small molecule inhibitors of human intestinal alkaline phosphatase via a luminescent assay. [Related pubchem assays (depositor defined):AID2544, AID2574]; type: functional
[17] = biological target: T4, Voltage-dependent T-type calcium channel subunit alpha-1H (Homo sapiens, UniProt O95180); assay: human CACNA1H calcium influx blockade – cell-based, synthetic library set 2, HEK293 HH8, Fluo-4, SAR follow-up (AID 493023); type: functional
[18] = biological target: T4, Voltage-dependent T-type calcium channel subunit alpha-1H; assay: inhibition of CACNA1H calcium flux – cell-based, SynthLib3 library, HEK293 Cav3.2, fluorescence (AID 493041); type: functional

T1 sequence (P09923 whole entry, the tested form may be a part): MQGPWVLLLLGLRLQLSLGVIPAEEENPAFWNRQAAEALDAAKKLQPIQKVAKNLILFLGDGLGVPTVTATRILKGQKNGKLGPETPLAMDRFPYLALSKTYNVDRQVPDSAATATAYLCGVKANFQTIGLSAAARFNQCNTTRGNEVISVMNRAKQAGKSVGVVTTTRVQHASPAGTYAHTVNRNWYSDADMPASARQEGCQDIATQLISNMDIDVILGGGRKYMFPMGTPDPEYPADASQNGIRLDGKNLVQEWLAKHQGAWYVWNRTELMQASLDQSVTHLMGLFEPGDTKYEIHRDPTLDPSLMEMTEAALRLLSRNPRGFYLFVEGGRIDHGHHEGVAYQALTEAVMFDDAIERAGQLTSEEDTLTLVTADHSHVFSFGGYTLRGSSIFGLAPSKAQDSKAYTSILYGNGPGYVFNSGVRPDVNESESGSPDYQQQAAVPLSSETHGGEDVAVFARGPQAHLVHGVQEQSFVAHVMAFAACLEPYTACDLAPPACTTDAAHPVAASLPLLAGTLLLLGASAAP
T4 sequence (O95180 whole entry): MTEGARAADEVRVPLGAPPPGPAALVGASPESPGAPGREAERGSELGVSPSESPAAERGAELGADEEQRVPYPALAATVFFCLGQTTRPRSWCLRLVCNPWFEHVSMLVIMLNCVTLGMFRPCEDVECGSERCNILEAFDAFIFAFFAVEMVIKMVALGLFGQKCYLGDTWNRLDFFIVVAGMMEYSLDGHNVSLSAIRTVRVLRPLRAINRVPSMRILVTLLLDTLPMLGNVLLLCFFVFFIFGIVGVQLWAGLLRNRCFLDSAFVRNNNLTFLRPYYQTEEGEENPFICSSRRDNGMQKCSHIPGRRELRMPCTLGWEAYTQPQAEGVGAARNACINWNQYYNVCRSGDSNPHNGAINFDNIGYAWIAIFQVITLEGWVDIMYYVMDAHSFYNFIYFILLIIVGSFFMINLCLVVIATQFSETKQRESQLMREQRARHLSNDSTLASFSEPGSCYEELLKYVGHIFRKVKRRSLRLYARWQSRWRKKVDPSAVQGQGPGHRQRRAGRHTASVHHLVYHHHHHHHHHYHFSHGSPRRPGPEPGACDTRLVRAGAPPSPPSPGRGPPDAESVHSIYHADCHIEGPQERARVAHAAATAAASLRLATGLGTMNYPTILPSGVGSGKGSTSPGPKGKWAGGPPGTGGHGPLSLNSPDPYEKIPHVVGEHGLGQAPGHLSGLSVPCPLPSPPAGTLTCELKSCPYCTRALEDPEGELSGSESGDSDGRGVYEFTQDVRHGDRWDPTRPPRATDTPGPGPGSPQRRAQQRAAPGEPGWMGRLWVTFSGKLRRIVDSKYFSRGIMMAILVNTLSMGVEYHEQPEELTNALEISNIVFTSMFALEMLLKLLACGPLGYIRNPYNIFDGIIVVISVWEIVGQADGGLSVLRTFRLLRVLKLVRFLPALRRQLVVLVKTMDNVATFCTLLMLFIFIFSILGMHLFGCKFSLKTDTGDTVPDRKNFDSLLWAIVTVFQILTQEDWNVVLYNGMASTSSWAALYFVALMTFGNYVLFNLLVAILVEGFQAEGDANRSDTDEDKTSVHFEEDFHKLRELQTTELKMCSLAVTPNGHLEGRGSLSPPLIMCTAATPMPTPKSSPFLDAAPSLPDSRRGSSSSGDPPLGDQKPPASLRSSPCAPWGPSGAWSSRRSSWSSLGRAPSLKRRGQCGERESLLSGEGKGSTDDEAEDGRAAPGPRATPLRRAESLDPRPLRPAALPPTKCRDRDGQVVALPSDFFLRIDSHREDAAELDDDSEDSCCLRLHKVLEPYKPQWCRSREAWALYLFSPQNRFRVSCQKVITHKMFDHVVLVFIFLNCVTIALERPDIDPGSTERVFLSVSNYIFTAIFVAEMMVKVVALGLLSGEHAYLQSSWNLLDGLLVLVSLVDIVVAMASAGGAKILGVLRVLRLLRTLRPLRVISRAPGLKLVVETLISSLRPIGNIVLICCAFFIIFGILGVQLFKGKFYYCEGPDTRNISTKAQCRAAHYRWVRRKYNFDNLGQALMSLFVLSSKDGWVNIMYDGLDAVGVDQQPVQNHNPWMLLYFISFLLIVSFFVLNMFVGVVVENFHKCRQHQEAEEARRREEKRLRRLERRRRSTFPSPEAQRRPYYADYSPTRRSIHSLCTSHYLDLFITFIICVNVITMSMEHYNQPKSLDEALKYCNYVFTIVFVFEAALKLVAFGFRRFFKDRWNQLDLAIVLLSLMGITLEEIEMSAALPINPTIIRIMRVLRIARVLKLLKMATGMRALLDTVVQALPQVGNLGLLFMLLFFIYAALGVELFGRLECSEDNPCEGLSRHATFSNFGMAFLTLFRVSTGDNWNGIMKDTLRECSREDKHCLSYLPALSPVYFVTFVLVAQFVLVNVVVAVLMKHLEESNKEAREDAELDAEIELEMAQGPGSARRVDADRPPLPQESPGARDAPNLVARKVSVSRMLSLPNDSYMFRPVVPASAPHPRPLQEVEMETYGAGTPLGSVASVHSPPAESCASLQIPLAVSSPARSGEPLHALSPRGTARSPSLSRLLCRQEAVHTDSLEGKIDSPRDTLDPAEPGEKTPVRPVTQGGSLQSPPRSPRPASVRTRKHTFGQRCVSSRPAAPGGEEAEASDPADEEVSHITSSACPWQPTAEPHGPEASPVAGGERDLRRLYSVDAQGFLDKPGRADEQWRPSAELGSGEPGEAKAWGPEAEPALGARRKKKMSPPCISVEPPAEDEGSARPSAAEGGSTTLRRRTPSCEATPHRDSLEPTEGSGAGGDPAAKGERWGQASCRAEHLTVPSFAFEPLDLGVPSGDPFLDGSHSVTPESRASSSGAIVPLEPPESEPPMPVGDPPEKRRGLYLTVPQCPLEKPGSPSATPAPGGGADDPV
Chain of Nonstructural protein 1 (Q194T2 whole entry): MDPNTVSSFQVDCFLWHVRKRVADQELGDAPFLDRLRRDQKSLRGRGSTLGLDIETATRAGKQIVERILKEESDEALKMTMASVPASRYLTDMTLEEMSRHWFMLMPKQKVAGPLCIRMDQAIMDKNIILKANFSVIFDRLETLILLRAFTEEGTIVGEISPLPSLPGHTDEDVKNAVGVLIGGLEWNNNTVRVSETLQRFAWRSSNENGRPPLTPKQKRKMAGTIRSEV
Chain of Intestinal-type alkaline phosphatase (Mus musculus, UniProt P24822) (P24822 whole entry): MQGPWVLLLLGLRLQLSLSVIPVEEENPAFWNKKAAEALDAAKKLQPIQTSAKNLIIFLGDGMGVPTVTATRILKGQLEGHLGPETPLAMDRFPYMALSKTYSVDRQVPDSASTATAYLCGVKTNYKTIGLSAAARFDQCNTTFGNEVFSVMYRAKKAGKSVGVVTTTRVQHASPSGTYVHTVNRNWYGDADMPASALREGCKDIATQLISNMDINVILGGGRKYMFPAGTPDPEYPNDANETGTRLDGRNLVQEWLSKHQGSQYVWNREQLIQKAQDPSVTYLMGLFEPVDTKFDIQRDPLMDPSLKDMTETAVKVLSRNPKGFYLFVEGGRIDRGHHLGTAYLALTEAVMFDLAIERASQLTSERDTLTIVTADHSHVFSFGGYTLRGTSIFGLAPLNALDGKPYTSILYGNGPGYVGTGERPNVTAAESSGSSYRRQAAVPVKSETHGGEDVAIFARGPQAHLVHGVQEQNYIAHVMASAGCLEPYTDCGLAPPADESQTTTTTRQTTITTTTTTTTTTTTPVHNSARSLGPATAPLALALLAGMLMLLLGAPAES

Structure (SMILES): CC(C)(C)c1ccc(-c2noc(CCC(=O)Nc3cccnc3)n2)cc1
- EC50 [1]: < 100 nM (active)
- IC50 [2]: > 39.8 µM (not active)
- EC50 (cells [3]): 321 nM (active)
- EC50 [4]: < 100 nM (active)
- IC50 (HEK293 [5]): 20.5 µM (inactive)
- IC50 [6]: > 80 µM (inactive)
- EC50 [7]: 1.18 µM (active)
- IC50 (HEK293 [8]): 470 nM (active)
- EC50 [9]: 774 nM (active)
- EC50 [10]: < 100 nM (active)
- IC50 (Jurkat): 435 nM (active)

Structure (SMILES): CN(C)c1ccc(N=Nc2ccccc2Br)cc1
- IC50 [11]: 30.9 µM (active)
- EC50 [12]: > 67.5 µM (inactive)
- IC50 [13]: 38.2 µM (active)
- EC50 (cells [14]): > 67.5 µM (inactive)
- IC50 [15]: 36 µM (active)
- IC50 (Nonstructural protein 1): 17.2 µM (active)
- IC50 [16]: 28.1 µM (inactive)

Structure (SMILES): CC(C)(C)CCN1CC2CCC(NC(=O)c3cc(Cl)cc(Cl)c3)C2C1 (stereo not given)
- EC50 [17]: 660 nM (active)
- EC50 [18]: 80 nM (active)
